From patent US9205064B2, “Methods for the diagnosis of oncological disorders using epimetabolic shifters, multidimensional intracellular molecules, or environmental influencers” (Berg LLC, priority 2009, dated 2015)

What was measured:
[1] = system: Bcl-2; test: Western blot of Bcl-2 in Skmel-28 cells treated with CoQ10 building block components; assay type: cell-based
Description: (§1) Skmel-28 melanoma cells were cultured in DMEM/F12 supplemented with 5% Fetal Bovine Serum (FBS) and 1× final concentration of Antibiotics. The cells were grown to 85% confluency and treated with building block components for 3, 6, 12 and 24 hours. The cells were then pelleted and a Western blot analysis was performed.
(§2) In the Western Blot Analysis, the cells were pelleted in cold PBS, lysed, and the protein levels were quantified using a BCA protein assay. The whole cell lysate was loaded in a 4% loading 12% running Tris-HCl gel. The proteins were then transferred to a nitrocellulose paper then blocked with a 5% milk Tris-buffered solution for 1 hour. The proteins were then exposed to primary antibodies (Bcl-2 and Caspase-3) overnight. The nitrocellulose paper was then exposed to Pico Chemilluminescent for 5 min and the protein expression was recorded. After exposure, actin was quantified using the same method. Using ImageJ the levels of protein expression were quantified. A t-Test was used to analyze for statistical significance.

[2] = system: HDFa cells; test: SeaHorse XF analyzer OCR and ECAR; assay type: cell-based, human
Source text: Environmental influencers (e.g., MIMs or Epi-shifters) may also be identified by changes in cellular energetics. One example of the measurement of cellular energetics are the real-time measures of the consumption of molecular oxygen and/or the change in pH of the media of a cell culture. For example, the ability of a potential epi-shifter to modulate the metabolic state of a cell may be analyzed using, for example, the XF24 Analyzer (Seahorse, Inc.). This technology allows for real time detection of oxygen and pH changes in a monolayer of cells in order to evaluate the bioenergetics of a cell microenvironment. The XF24 Analyzer measures and compares the rates of oxygen consumption (OCR), which is a measure of aerobic metabolism, and extracellular acidification (ECAR), which is a measure of glycolysis, both key indicators of cellular energetics.
(SeaHorse Biosciences Inc, North Billerica, Mass.).
In this experiment, the OCR and extracellular acidification rate (ECAR) in normal cells lines were obtained in the presence and absence of CoQ10 to determine baseline values. It was observed that in its native nutrient environment, the basal OCR rates in normal cells lines are different, and are usually a function of the physiological roles of the cells in the body.
FIGS. 29 and 30 describe the OCR in HDFa and HASMC cells grown in physiologically normal glucose (about 4.6 mM) and high glucose (hyperglycemic) conditions.
Table 53, below, describes the ECAR values (mpH/min) in HDFa cells in the presence or absence of CoQ10 under normoxic and hypoxic conditions at 5.5 mM and 22 mM glucose.

[3] = system: Caspase-3; test: Western blot of Caspase-3 in Skmel-28 cells treated with CoQ10 building block components; assay type: cell-based
Description: as §1, §2

[4] = system: Melanoma cells; test: Cell proliferation assay (live cell count) of building block combinations; assay type: cell-based
Description: This set of experiments used a cell proliferation assay to assess the effect of combining different building block molecules on cell proliferation.
The first study examined the effect of combining 4-Hydroxy-Benzoate with Benzoquinone. Cells were incubated for 48 hours, after which a cell count was performed for the live cells. Each test group was compared to the control, and each combination groups were compared to Benzoquinone control. The compounds were statistically analyzed for the addition of Benzoquinone.
Additional studies were performed testing additional molar ratios. For the first test 4-Hydroxybenzoic were tested at concentrations of 500 nM, 1 μM, and 50 μM. These concentrations were tested in combination with 2,3-Dimethoxy-5-methyl-p-benzoquinone (Benzo). The concentration of Benzo tested were 25 μM, 50 μM, and 100 μM. Melanoma cells were grown to 80% confluency and seeded in 6 well plates at a concentration of 40K cells per well. The cells were treated with CoQ10, 4-Hydroxybenzoate, Benzo, and a combination of 4-Hydroxybenzoate/Benzo.
A T-test was performed with p<0.05 as statistically significant.

[5] = system: neonatal fibroblast cells; test: Cell proliferation assay (coulter counter); assay type: cell-based; conditions: HB 500 nM, 5 μM, 25 μM; benzoquinone 25, 50, 100 μM; 24 hours
Description: A cell proliferation assay was also performed on neonatal fibroblast cells. The concentrations of HB tested were 500 nM, 5 μM, and 25 μM. HB was also tested in combination with benzoquinone at a concentrations of 25 μM, 50 μM, and 100 μM. Melanoma cells were seeded at 40 k cells per well and were treated for 24 hours. The cells were trypsinized and quantified using a coulter counter.

[6] = 500 nM, 1 μM, 25 μM and 50 μM, all time points

N[C@@H](Cc1ccc(O)cc1)C(=O)O [L-Tyrosine]
Bcl-2 expression ([1]; 500 μM and 5 μM, 24 hours): statistically significant decrease

COC1=C(OC)C(=O)C(C/C=C(\C)CC/C=C(\C)CC/C=C(\C)CC/C=C(\C)CC/C=C(\C)CC/C=C(\C)CC/C=C(\C)CC/C=C(\C)CC/C=C(\C)CCC=C(C)C)=C(C)C1=O [compound 31510]
ECAR ([2]; 50 μM, Hypoxia (5.5 mM)): 5 mpH/min
ECAR ([2]; 50 μM, Hypoxia (22 mM)): 6 mpH/min
ECAR ([2]; 50 μM, Normoxia (5.5 mM)): 6 mpH/min
ECAR ([2]; 50 μM, Normoxia (22 mM)): 5 mpH/min
ECAR ([2]; 100 μM, Hypoxia (5.5 mM)): 5 mpH/min
ECAR ([2]; 100 μM, Hypoxia (22 mM)): 8 mpH/min
ECAR ([2]; 100 μM, Normoxia (5.5 mM)): 6 mpH/min
ECAR ([2]; 100 μM, Normoxia (22 mM)): 5 mpH/min

CC(=O)SCCNC(=O)CCNC(=O)[C@H](O)C(C)(C)COP(=O)(O)OP(=O)(O)OC[C@H]1O[C@@H](n2cnc3c(N)ncnc32)[C@H](O)[C@@H]1OP(=O)(O)O [Acetyl-CoA]
Bcl-2 expression [1, 6]: no significant observed reduction
Caspase-3 expression [3, 6]: no significant observed

N[C@H](Cc1ccc(O)cc1)C(=O)O [D-Tyrosine]
Caspase-3 expression ([3]; 5 μM, 12 hour): increase

C[C@@](O)(CCO)CC(=O)O [Mevalonic Acid, mevalonic acid]
Bcl-2 expression [1, 6]: no significant reduction
Caspase-3 expression [3, 6]: no significant

O=C(O)c1ccc(O)cc1 [4-Hydroxybenzoate, 4-hydroxy-benzoate]
cell number compared to the control ([4]; 48 hours): significant decrease in cell number
cell proliferation ([4]; HB 500 nM, 1 μM, 50 μM, p<0.05): significant decrease in cell proliferation
reduction in fibroblast cells [5]: did not show a significant reduction

COc1cc(C(O)C(=O)O)ccc1O (stereo not drawn) [VMA, 3-methoxy-4-hydroxymandelate]
apoptotic effect (Bcl-2, Caspase-3) ([1]; 100 nM, 250 nM, 500 nM, 1 μM, 25 μM, 50 μM and 100 μM): no statistically significant apoptotic effect
